Results published in PubChem BioAssay (NCI).
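Tested at 5 concentrations; 48 h exposure; 96-well plates; endpoints linearly interpolated, else capped at highest concentration. GI50: concentration for 50% inhibition of growth. TGI denotes the concentration required for complete inhibition of growth.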

Legend:
Experiment in all cases: NCI-60 cell line screen, 48 h
ACHN renal = tested on: ACHN renal
NCI-H522 lung = tested on: NCI-H522 lung
MOLT-4 leukemia = tested on: MOLT-4 leukemia
UACC-62 melanoma = tested on: UACC-62 melanoma
MDA-MB-435 = tested on: MDA-MB-435
HL-60(TB) leukemia = tested on: HL-60(TB) leukemia
A498 renal = tested on: A498 renal
LOX IMVI melanoma = tested on: LOX IMVI melanoma
RXF 393 renal = tested on: RXF 393 renal
KM20L2 colon = tested on: KM20L2 colon
M19-MEL melanoma = tested on: M19-MEL melanoma

SMILES | TGI (ACHN renal) [µM] | TGI (NCI-H522 lung) [µM] | TGI (MOLT-4 leukemia) [µM] | TGI (UACC-62 melanoma) [µM] | TGI (MDA-MB-435) [µM] | TGI (HL-60(TB) leukemia) [µM] | TGI (A498 renal) [µM] | TGI (LOX IMVI melanoma) [µM] | TGI (RXF 393 renal) [µM] | TGI (KM20L2 colon) [µM] | TGI (M19-MEL melanoma) [µM] | GI50 (ACHN renal) [µM] | GI50 (NCI-H522 lung) [µM] | GI50 (MOLT-4 leukemia) [µM] | GI50 (UACC-62 melanoma) [µM] | GI50 (MDA-MB-435) [µM] | GI50 (HL-60(TB) leukemia) [µM] | GI50 (A498 renal) [µM] | GI50 (LOX IMVI melanoma) [µM] | GI50 (RXF 393 renal) [µM]
Cc1cc(-c2nc3cc(F)ccc3s2)ccc1NC(=O)[C@@H](N)CCCCN | 19.3 | 21 | 7.24 | 23.4 | 3.69 | 6.29 | 23.9 | 3.62 | 24.2 |  |  |  |  |  |  |  |  |  |  | 
COc1cc2ccc(=O)oc2cc1O |  | 618 | 223 | 161 |  | 271 | 208 | > 625 | > 569 | 614 | 328 |  |  |  |  |  |  |  |  | 
OCC(O)C(O)C(O)C(O)c1nc2ccc(Cl)cc2[nH]1 (stereo not drawn) | > 100 | > 100 | > 100 | > 100 | > 100 | 4.89 | > 100 | > 100 | > 100 |  |  |  |  |  |  |  |  |  |  | 
CC(NC(=O)C(NC(=O)CNC(=O)OC(C)(C)C)C(C)C)C(=O)Oc1c(Cl)c(Cl)c(Cl)c(Cl)c1Cl (stereo not drawn) | 58.9 | 45.2 | > 100 | 34.8 | 61.3 | > 100 | 45 | 32.5 | 44.6 |  |  |  |  |  |  |  |  |  |  | 
CC(C)CNc1nc2ncnc(N)c2[nH]1 | > 100 | > 100 | > 100 | > 100 | > 100 | > 100 | > 100 | > 100 | > 100 |  |  |  |  |  |  |  |  |  |  | 
C/C=C/c1cc(=O)c([C@@H]2OC(=O)c3cc(OC)cc(OC)c32)co1 | > 100 |  | > 100 | > 100 |  | > 100 |  |  | > 100 | > 100 | > 100 |  |  |  |  |  |  |  |  | 
Cc1cc(F)ccc1S(=O)(=O)Nc1cc(-c2c(O)ccc3ccccc23)c(O)c2ccccc12 | 8.03 | 4.77 | 14 | 4.54 | 10.9 | 6.19 | 9.75 | 10.8 | 9.11 |  |  | 2.44 | 1.77 | 3.33 | 1.85 | 3.18 | 2.6 | 3 | 2.91 | 2.53
CC(=O)NCCC1CN(C(=O)/C=C/I)c2ccccc21 (stereo not drawn) | 17.8 | 2.83 | > 64.6 | 9.89 | 18.5 | > 100 | 17.5 | 3.25 | 10.8 |  |  |  |  |  |  |  |  |  |  | 
CCCCCCCC/C=C\CCCCCCC/C=C1\C[C@](/C=C/C(=O)OC)(CO)OC1=O | 7.9 | 8.61 | 10.6 | 20.1 | 3.22 | 6.14 | 22.7 | 3.02 | 12.3 |  |  |  |  |  |  |  |  |  |  | 
CSCCC(N)C(=O)NCCNc1ccc(NCCNC(=O)C(N)CCSC)c2c1C(=O)c1ccccc1C2=O (stereo not drawn) | 5.45 | 1.3 | 4.23 | 2.51 | 4.59 | 5.36 | 3.83 | 2.54 | 4.73 |  |  |  |  |  |  |  |  |  |  | 
COc1c(O)c(C=O)c2c(O)c(-c3c(C)cc4c(C(C)C)c(OC)c(O)c(C=O)c4c3O)c(C)cc2c1C(C)C | 8.05 | 6.56 | 27.9 | 29 |  | 41.4 | 24.7 |  | 5.75 | 19.9 | 12.4 |  |  |  |  |  |  |  |  | 
CCOP(=O)(/C=C\n1cc(C)c(=O)[nH]c1=O)OCC | > 100 | > 100 | > 100 | > 100 | > 100 | > 100 | > 100 | > 100 | > 100 |  |  |  |  |  |  |  |  |  |  | 
Cc1ccc([S@](=O)c2occc2C=O)cc1 | 28.7 | 31.6 | 4.16 | 29.3 | 20.8 | 4.25 | 32.3 | 3.93 | 26.3 |  |  |  |  |  |  |  |  |  |  | 
OCCO/N=C1\C(c2c(O)[nH]c3ccccc23)=Nc2ccccc21 | > 100 | > 100 | > 100 | > 100 | > 100 | > 100 | 0.875 | > 100 | > 100 |  |  |  |  |  |  |  |  |  |  | 
C[C@H](NC(=O)C(Cc1ccccc1)(Cc1ccc(O)cn1)NC(=O)c1ccccc1)c1ccccc1 (stereo partly drawn) | 43.2 | 35.4 | 84.9 | 26.5 | 37.3 | 64.6 | 33.5 | 29.7 | 28.2 |  |  |  |  |  |  |  |  |  |  | 
C=C(C(N)=O)c1ccc([N+](=O)[O-])o1 | 12.2 | 4.24 | 18.8 | 21.4 | 7.65 | 6.12 | 25.7 | 23.1 | 9.64 |  |  |  |  |  |  |  |  |  |  | 
O=C1CCCCCCCCCCC1CN1CCCC1 (stereo not drawn) | > 100 | > 100 | > 100 | 36.7 | > 100 | > 100 | > 100 | 70.7 | 65.4 |  |  |  |  |  |  |  |  |  |  | 
Cc1ccc(/C(O)=C/c2nc3ccccc3sc2=O)c(C)c1 | > 100 | 62.1 | > 100 | > 100 | > 100 | 69.6 | > 100 | > 100 | 18.2 |  |  |  |  |  |  |  |  |  |  | 
CC(=O)Oc1cc2c(cc1OC(C)=O)OCC(c1ccc(C)cc1)C2 (stereo not drawn) |  | 6.86 | 54.6 | 21.3 |  | 6.56 | 15.3 | 37.7 | 34.6 | 60.5 | 23.5 |  |  |  |  |  |  |  |  | 
COc1ccc(C2=Nc3cc(C)c(C)cc3NC(c3ccccc3)C2)cc1 (stereo not drawn) | > 100 | > 100 | > 100 | > 100 | > 100 | > 100 | > 100 | > 100 | > 100 |  |  |  |  |  |  |  |  |  |  | 
C=C/C(C)=C\CC1[C@](C)(O)CC[C@H]2C(C)(C)C(=O)CC[C@]12C (stereo partly drawn) | > 100 | > 100 | 79.3 | > 100 | > 100 | 60 | > 100 | > 100 | > 100 |  |  |  |  |  |  |  |  |  |  | 
CN(C)C(=O)OC1C(=O)N(C)c2ccc(Cl)cc2C2(c3ccccc3)N1C2(Cl)Cl (stereo not drawn) | > 100 | > 100 | > 100 | > 100 |  | > 100 |  | > 100 | > 100 | > 100 | > 100 |  |  |  |  |  |  |  |  | 
O=c1[nH]nc(-c2ccccc2)n1/N=C\c1ccccc1 | > 100 | > 100 | > 100 | > 100 | > 100 | > 100 | > 100 | > 100 | > 100 |  |  |  |  |  |  |  |  |  |  | 
OC1(c2ccccc2)CCN(Cc2c[nH]c3ccccc23)CC1 | > 100 | > 100 | > 100 | > 100 | > 100 | > 100 | > 100 | > 100 | > 100 |  |  |  |  |  |  |  |  |  |  | 
CC(=O)N1CC(C)(C)c2c(C)c(O)c(C)c(C)c21 | > 100 | > 100 | > 100 | > 100 | > 100 | > 100 | > 100 | > 100 | > 100 |  |  |  |  |  |  |  |  |  |  | 
NC(=O)c1cccc([N+](=O)[O-])c1 |  | > 100 | > 100 | > 100 |  | > 100 | > 100 | > 100 |  | > 100 | > 100 |  |  |  |  |  |  |  |  | 
CN(C)c1nc(N)nc(CS)n1 | > 100 | > 100 | > 100 | > 100 | > 100 | 60.6 | > 100 | > 100 | > 100 |  |  |  |  |  |  |  |  |  |  | 
CCCCC(=O)c1c(O)nc2sccn2c1=O | > 10 | > 10 | > 10 | > 10 | > 10 | > 10 | > 10 | > 10 | > 10 |  |  |  |  |  |  |  |  |  |  | 
